According to patent publication US10450270B2, “Glyoxamide substituted pyrrolamide derivatives and the use thereof as medicaments for the treatment of hepatitis B” (Janssen Sciences Ireland UC, priority 2013, dated 2019):

What was measured:
[1] = test system: HBV; test: Anti-HBV activity, HepG2.117 inducible HBV producing cell line (Tet-off), intracellular HBV DNA by realtime PCR; format: cell-based; conditions: Hepatitis B virus, 72 h; HepG2.117 cells, 3 days of treatment, intracellular HBV DNA; read-out: HepG2 117 EC50
[2] = Cytotoxicity in HepG2 cells, Resazurin viability assay; conditions: human, HepG2 cells

SMILES	EC50 [1] [nM]	CC50 at 4 days [2] [nM]
Cc1c(C(=O)C(=O)NC2(C(F)(F)F)CC2)cc(C(=O)Nc2ccc(F)c(C#N)c2)n1C [Compound 57, N-(3-cyano-4-fluoro-phenyl)-1,5-dimethyl-4-[2-oxo-2-[[1-(trifluoromethyl)-cyclopropyl]amino]acetyl]pyrrole-2-carboxamide]	6	> 25000
Cc1c(C(=O)C(=O)NC(C)(C)C(F)(F)F)cc(C(=O)Nc2ccc(F)c(C#N)c2)n1C [Compound 58, N-(3-cyano-4-fluoro-phenyl)-1,5-dimethyl-4-[2-oxo-2-[(2,2,2-trifluoro-1,1-dimethyl-ethyl)amino]acetyl]pyrrole-2-carboxamide]	6	> 25000
Cc1c(C(=O)C(=O)NC(C)(C)C)cc(C(=O)Nc2ccc(F)c(C#N)c2)n1C [Compound 59, 4-[2-(tert-butylamino)-2-oxo-acetyl]-N-(3-cyano-4-fluoro-phenyl)-1,5-dimethyl-pyrrole-2-carboxamide]	4	> 25000
Cc1c(C(=O)C(=O)NC2(C)COC2)cc(C(=O)Nc2ccc(F)c(C#N)c2)n1C [Compound 60, N-(3-cyano-4-fluoro-phenyl)-1,5-dimethyl-4-[2-[(3-methyloxetan-3-yl)-amino]-2-oxo-acetyl]pyrrole-2-carboxamide]	11	> 25000
C[C@@H](NC(=O)C(=O)c1cc(C(=O)Nc2ccc(F)c(C#N)c2)n(C)c1C1CC1)C(F)(F)F [Compound 61, N-(3-cyano-4-fluoro-phenyl)-5-cyclopropyl-1-methyl-4-[2-oxo-2-[[(1R)-2,2,2-trifluoro-1-methyl-ethyl]amino]acetyl]pyrrole-2-carboxamide]	120	> 25000
Cc1c(C(=O)C(=O)N[C@H]2CCN(C)C[C@H]2O)cc(C(=O)Nc2ccc(F)c(C#N)c2)n1C [Compound 62, N-(3-cyano-4-fluoro-phenyl)-4-[2-[[(3R,4S)-3-hydroxy-1-methyl-4-piperidyl]amino]-2-oxo-acetyl]-1,5-dimethyl-pyrrole-2-carboxamide]	230	> 25000
CCCC[C@@H](CO)NC(=O)C(=O)c1cc(C(=O)Nc2ccc(F)c(C#N)c2)n(C)c1C [Compound 63, N-(3-cyano-4-fluoro-phenyl)-4-[2-[[(1S)-1-(hydroxymethyl)pentyl]amino]-2-oxo-acetyl]-1,5-dimethyl-pyrrole-2-carboxamide]	210	> 25000
C[C@@H](NC(=O)C(=O)c1cc(C(=O)Nc2ccc(F)c(C#N)c2)n(C)c1)C(F)(F)F [Compound 64, N-(3-cyano-4-fluoro-phenyl)-1-methyl-4-[2-oxo-2-[[(1R)-2,2,2-trifluoro-1-methyl-ethyl]amino]acetyl]pyrrole-2-carboxamide]	66	> 25000
Cc1c(C(=O)C(=O)N[C@H]2CCC[C@@H]2O)cc(C(=O)Nc2ccc(F)c(C#N)c2)n1C [Compound 65, N-(3-cyano-4-fluoro-phenyl)-4-[2-[[(1S,2S)-2-hydroxycyclopentyl]amino]-2-oxo-acetyl]-1,5-dimethyl-pyrrole-2-carboxamide]	160	> 25000
Cc1c(C(=O)C(=O)N[C@H]2[C@H](C)CC[C@H]2O)cc(C(=O)Nc2ccc(F)c(C#N)c2)n1C [Compound 66, N-(3-cyano-4-fluoro-phenyl)-4-[2-[[(1S,2R,5R)-2-hydroxy-5-methyl-cyclopentyl]amino]-2-oxo-acetyl]-1,5-dimethyl-pyrrole-2-carboxamide]	110	> 25000
Cc1c(C(=O)C(=O)N[C@H]2CCCC[C@@H]2O)cc(C(=O)Nc2ccc(F)c(C#N)c2)n1C [Compound 67, N-(3-cyano-4-fluoro-phenyl)-4-[2-[[(1S,2S)-2-hydroxycyclohexyl]amino]-2-oxo-acetyl]-1,5-dimethyl-pyrrole-2-carboxamide]	94	> 25000
Cc1c(C(=O)C(=O)N[C@H](CO)C(C)C)cc(C(=O)Nc2ccc(F)c(C#N)c2)n1C [Compound 68, N-(3-cyano-4-fluoro-phenyl)-4-[2-[[(1S)-1-(hydroxymethyl)-2-methyl-propyl]amino]-2-oxo-acetyl]-1,5-dimethyl-pyrrole-2-carboxamide]	78	> 25000
CC[C@H](C)[C@@H](CO)NC(=O)C(=O)c1cc(C(=O)Nc2ccc(F)c(C#N)c2)n(C)c1C [Compound 69, N-(3-cyano-4-fluoro-phenyl)-4-[2-[[(1S,2S)-1-(hydroxymethyl)-2-methyl-butyl]amino]-2-oxo-acetyl]-1,5-dimethyl-pyrrole-2-carboxamide]	49	> 25000
COCC(C)(CCO)NC(=O)C(=O)c1cc(C(=O)Nc2ccc(F)c(C#N)c2)n(C)c1C (centres unmarked) [Compound 70, N-(3-cyano-4-fluoro-phenyl)-4-[2-[[3-hydroxy-1-(methoxymethyl)-1-methyl-propyl]amino]-2-oxo-acetyl]-1,5-dimethyl-pyrrole-2-carboxamide]	25	> 25000
Cc1c(C(=O)C(=O)NC2(CO)COC2)cc(C(=O)Nc2ccc(F)c(C#N)c2)n1C [Compound 71, N-(3-cyano-4-fluoro-phenyl)-4-[2-[[3-(hydroxymethyl)oxetan-3-yl]amino]-2-oxo-acetyl]-1,5-dimethyl-pyrrole-2-carboxamide]	24	> 25000
Cc1c(C(=O)C(=O)NC(C)C(C)(C)O)cc(C(=O)Nc2ccc(F)c(C#N)c2)n1C (centres unmarked) [Compound 72, N-(3-cyano-4-fluoro-phenyl)-4-[2-[(2-hydroxy-1,2-dimethyl-propyl)amino]-2-oxo-acetyl]-1,5-dimethyl-pyrrole-2-carboxamide]	18	> 25000
Cc1c(C(=O)C(=O)NC2(CO)CC2)cc(C(=O)Nc2ccc(F)c(C#N)c2)n1C [Compound 73, N-(3-cyano-4-fluoro-phenyl)-4-[2-[[1-(hydroxymethyl)cyclopropyl]amino]-2-oxo-acetyl]-1,5-dimethyl-pyrrole-2-carboxamide]	17	> 25000
Cc1c(C(=O)C(=O)NC(CCO)C2CC2)cc(C(=O)Nc2ccc(F)c(C#N)c2)n1C (centres unmarked) [Compound 74, N-(3-cyano-4-fluoro-phenyl)-4-[2-[(1-cyclopropyl-3-hydroxy-propyl)-amino]-2-oxo-acetyl]-1,5-dimethyl-pyrrole-2-carboxamide]	15	> 25000
CCCC[C@H](CO)NC(=O)C(=O)c1cc(C(=O)Nc2ccc(F)c(C#N)c2)n(C)c1C [Compound 75, N-(3-cyano-4-fluoro-phenyl)-4-[2-[[(1R)-1-(hydroxymethyl)pentyl]amino]-2-oxo-acetyl]-1,5-dimethyl-pyrrole-2-carboxamide]	14	> 25000
CCC(C)(CO)NC(=O)C(=O)c1cc(C(=O)Nc2ccc(F)c(C#N)c2)n(C)c1C (centres unmarked) [Compound 76, N-(3-cyano-4-fluoro-phenyl)-4-[2-[[1-(hydroxymethyl)-1-methyl-propyl]-amino]-2-oxo-acetyl]-1,5-dimethyl-pyrrole-2-carboxamide]	13	> 25000
Cc1c(C(=O)C(=O)NC(C)(CO)C2CC2)cc(C(=O)Nc2ccc(F)c(C#N)c2)n1C (centres unmarked) [Compound 77, N-(3-cyano-4-fluoro-phenyl)-4-[2-[(1-cyclopropyl-2-hydroxy-1-methyl-ethyl)amino]-2-oxo-acetyl]-1,5-dimethyl-pyrrole-2-carboxamide]	12	> 25000
Cc1c(C(=O)C(=O)NC2(C)CCCOC2)cc(C(=O)Nc2ccc(F)c(C#N)c2)n1C (centres unmarked) [Compound 78, N-(3-cyano-4-fluoro-phenyl)-1,5-dimethyl-4-[2-[(3-methyltetrahydropyran-3-yl)amino]-2-oxo-acetyl]pyrrole-2-carboxamide]	8	> 25000
COCC(C)(C)NC(=O)C(=O)c1cc(C(=O)Nc2ccc(F)c(C#N)c2)n(C)c1C [Compound 79, N-(3-cyano-4-fluoro-phenyl)-4-[2-[(2-methoxy-1,1-dimethyl-ethyl)amino]-2-oxo-acetyl]-1,5-dimethyl-pyrrole-2-carboxamide]	8	> 25000
COCC(C)(NC(=O)C(=O)c1cc(C(=O)Nc2ccc(F)c(C#N)c2)n(C)c1C)C(F)(F)F (centres unmarked) [Compound 80, N-(3-cyano-4-fluoro-phenyl)-1,5-dimethyl-4-[2-oxo-2-[[2,2,2-trifluoro-1-(methoxymethyl)-1-methyl-ethyl]amino]acetyl]pyrrole-2-carboxamide]	7	> 25000
Cc1c(C(=O)C(=O)NC(C)(C)CCO)cc(C(=O)Nc2ccc(F)c(C#N)c2)n1C [Compound 81, N-(3-cyano-4-fluoro-phenyl)-4-[2-[(3-hydroxy-1,1-dimethyl-propyl)amino]-2-oxo-acetyl]-1,5-dimethyl-pyrrole-2-carboxamide]	12	> 25000
Cc1c(C(=O)C(=O)NC2(C(F)(F)F)CCC(O)CC2)cc(C(=O)Nc2ccc(F)c(C#N)c2)n1C (centres unmarked) [Compound 82, N-(3-cyano-4-fluoro-phenyl)-4-[2-[[4-hydroxy-1-(trifluoromethyl)cyclo-hexyl]amino]-2-oxo-acetyl]-1,5-dimethyl-pyrrole-2-carboxamide]	3	> 25000
Cn1cc(C(=O)C(=O)NC2(C(F)(F)F)CCOC2)c(F)c1C(=O)Nc1ccc(F)c(C#N)c1 (centres unmarked) [Compound 83, N-(3-cyano-4-fluoro-phenyl)-3-fluoro-1-methyl-4-[2-oxo-2-[[3-(trifluoro-methyl)tetrahydrofuran-3-yl]amino]acetyl]pyrrole-2-carboxamide]	6	11800
Cn1cc(C(=O)C(=O)NC2(C(F)(F)F)CCC2)c(F)c1C(=O)Nc1ccc(F)c(C#N)c1 [Compound 84, N-(3-cyano-4-fluoro-phenyl)-3-fluoro-1-methyl-4-[2-oxo-2-[[1-(trifluoro-methyl)cyclobutyl]amino]acetyl]pyrrole-2-carboxamide]	3	21900
